# Patent US20150342956A1, “METHODS OF TREATMENT FOR CONDITIONS MEDIATED BY SUBSTANCE P” (Beller Pharmaceuticals LLC, priority 2014, published 2015)
# How the values were obtained:
# INS symptoms = experiment: Exemplary cases of INS: patient-ranked symptom severity (1-10) and GLI score before and after treatment; format: in vivo, human; settings: for Global Improvement (global level of improvement): three months (gabapentin stopped more than a month prior)
# Method: This example describes three exemplary cases of INS. Patients were given a list of INS symptoms and asked to rank those present on a scale of 1-10, with 10 indicating most severe. Treatment was provided (gabapentin, omeprazole, and/or immunotherapy).
# Patient two is a person who presented complaining of cough, runny nose, and sneezing. […] They were started on gabapentin (900 mg) and returned in two weeks for re-evaluation. They reported 60% global level of improvement with gabapentin. They were also started on immunotherapy for its long-lasting benefits. They returned for further evaluation three months later to report they had improved by 85% and had stopped the gabapentin more than a month prior to their last visit. Their symptoms were scored for severity from 1 (mild) to 10 (severe) on initial evaluation, after gabapentin, and after three months of immunotherapy. Their scores are below:
# Patient three is a person who presented complaining of cough, post nasal drip, and runny nose. […] The patient was started on immunotherapy and returned for follow-up after four months of immunotherapy. Due to their busy schedule the patient had missed several shot visits and their immunotherapy doses were never increased to the maximum, maintenance dose. They were receiving doses at 1/10th of the maintenance dose. They reported 40% improvement. Omeprazole 40 mg two times daily was added to their regimen and they returned for re-evaluation one week later to report 100% improvement. Their symptom scores are below:
# Patient one is a child who presented with their parent complaining of shortness of breath and cough. […] Their parent stated that they commonly wet the bed 2-3 times each night. They were started on omeprazole 20 mg twice a day and returned in a week. […] Their parent estimated 45% global level of improvement. The omeprazole was discontinued due to headaches and they were started on gabapentin. Their parent was advised to increase the dose slowly until it seemed to help or was causing side effects. They returned in two weeks for re-evaluation and had achieved 900 mg twice daily on gabapentin. Their parent estimated 85% global level of improvement.
# [1] = test system: INS symptoms in patients with a diagnosis of atypical reflux; experiment: Retrospective medical record review: global level of improvement (GLI) with immunotherapy and/or oral medications; format: in vivo, human; settings: GLI 0-100% score
# Method: Some symptoms of INS have previously been associated with atypical reflux. This example describes a retrospective medical record review for cases in which these symptoms were treated with immunotherapy (allergy shots) and/or oral medications (omeprazole, gabapentin, and/or baclofen).
# The population for this example included patients 18 years or older with a diagnosis of atypical reflux and a recorded diagnostic code of 530.81 (see, e.g., http://www.cms.gov/Medicare/Coding/ICD9ProviderDiagnosticCodes/index.html). A randomized sample of 307 cases was derived from a total of 650 patients.
# Of the 307 cases, 191 (62.2%) patients tested positive for allergy, 74 (24.1%) were negative, and 42 (13.7%) had unknown allergy status. Allergy refers to IgE-mediated allergies such as ragweed, dust mites, trees, grass, pets, stinging insects, peanuts, etc. Of the 191 cases with allergy, 57 (29.8%) had no immunotherapy, 8 (4.2%) had received immunotherapy in the past, and 126 (66.0%) were currently receiving immunotherapy. Of the 126 currently receiving immunotherapy (abbreviated below as “IT”), 70 (55.6%) had reached maintenance dosing (defined as the effective, therapeutic dose; “on main”) and 56 […] had not yet reached maintenance dosing (“not on main”). The period of immunotherapy is about 3-5 years, and individuals typically reach maintenance dosing by the second half of the first year.
# Of the 307 cases, 213 (69.3%) were taking one medication and 86 (28%) were taking no medication. Seven patients were taking two medications, and one patient was taking three medications. Three oral medications used to treat INS were compared: high dose acid suppression using omeprazole (40 mg twice a day), baclofen (40 mg twice a day), and gabapentin (300 mg gradually increasing from one to three times a day).
# Global level of improvement (GLI) was represented by a 0-100% score. At each clinical visit, patients were asked to estimate the percentage of their overall improvement. Those figures were entered into the medical record as a GLI score. Trials documented as failed (stopped either due to lack of benefit or dose-limiting side effects) or inadequate (dose never titrated to benefit or side effect) are not included in the results below.
# [2] = Patient one, omeprazole 20 mg twice a day, one week, then gabapentin 900 mg twice daily, two weeks
# [3] = Patient one, score 1-10, 0 = not present, initial visit 0, omeprazole 20 mg twice a day, one week, then gabapentin 900 mg twice daily, two weeks
# [4] = Patient one, score 1-10, 0 = not present, initial visit 3, omeprazole 20 mg twice a day, one week, then gabapentin 900 mg twice daily, two weeks
# [5] = Patient one, score 1-10, 0 = not present, initial visit 4, omeprazole 20 mg twice a day, one week, then gabapentin 900 mg twice daily, two weeks
# [6] = Patient one, score 1-10, 0 = not present, initial visit 5, omeprazole 20 mg twice a day, one week, then gabapentin 900 mg twice daily, two weeks
# [7] = Patient one, score 1-10, 0 = not present, initial visit 6, omeprazole 20 mg twice a day, one week, then gabapentin 900 mg twice daily, two weeks
# [8] = Patient one, score 1-10, 0 = not present, initial visit 7, omeprazole 20 mg twice a day, one week, then gabapentin 900 mg twice daily, two weeks
# [9] = Patient one, score 1-10, 0 = not present, initial visit 8, omeprazole 20 mg twice a day, one week, then gabapentin 900 mg twice daily, two weeks
# [10] = Patient one, score 1-10, 0 = not present, initial visit 10, omeprazole 20 mg twice a day, one week, then gabapentin 900 mg twice daily, two weeks
# [11] = Patient three, score 1-10, 0 = not present, initial visit 5, immunotherapy four months at 1/10th of maintenance dose, then omeprazole 40 mg two times daily added, one week
# [12] = Patient three, score 1-10, 0 = not present, initial visit 6, immunotherapy four months at 1/10th of maintenance dose, then omeprazole 40 mg two times daily added, one week
# [13] = Patient three, score 1-10, 0 = not present, initial visit 7, immunotherapy four months at 1/10th of maintenance dose, then omeprazole 40 mg two times daily added, one week
# [14] = Patient three, score 1-10, 0 = not present, initial visit 10, immunotherapy four months at 1/10th of maintenance dose, then omeprazole 40 mg two times daily added, one week
# [15] = No IT (no allergy, or positive allergy but no immunotherapy)
# [16] = Patient two, score 1-10, 0 = not present, initial visit 5, gabapentin 900 mg, two weeks, immunotherapy, three months
# [17] = Patient two, score 1-10, 0 = not present, initial visit 6, gabapentin 900 mg, two weeks, immunotherapy, three months
# [18] = Patient two, score 1-10, 0 = not present, initial visit 7, gabapentin 900 mg, two weeks, immunotherapy, three months
# [19] = Patient two, score 1-10, 0 = not present, initial visit 8, gabapentin 900 mg, two weeks, immunotherapy, three months
# [20] = Patient two, score 1-10, 0 = not present, initial visit 10, gabapentin 900 mg, two weeks, immunotherapy, three months
smiles,measurement,setting,value
"COc1ccc2[nH]c([S+]([O-])Cc3ncc(C)c(OC)c3C)nc2c1 (stereo not shown) [Omeprazole, omeprazole]",Possible side effect,"INS symptoms; Patient one, omeprazole 20 mg twice a day, one week, drug discontinued",some headaches
same,"Global Improvement (global level of improvement, estimated by mother)",INS symptoms; [2],45%
same,"Global Improvement (global level of improvement, estimated by mother)","INS symptoms; Patient one, omeprazole 20 mg twice a day, one week, then gabapentin 900 mg twice daily, two weeks, listed as omeprazole",45%
same,Frontal Headache severity score,INS symptoms; [3],8
same,Vulvodynia severity score,INS symptoms; [4],0
same,Fatigue severity score,INS symptoms; [5],2
same,Malaise severity score,INS symptoms; [5],2
same,Nausea severity score,INS symptoms; [5],0
same,Shortness of breath severity score,INS symptoms; [6],5
same,Chest Tightness severity score,INS symptoms; [7],3
same,Watery Eyes severity score,INS symptoms; [7],2
same,Sore Throat severity score,INS symptoms; [8],5
same,Cough severity score,INS symptoms; [9],4
same,Pollakiuria severity score,INS symptoms; [9],2
same,Post Nasal Drip severity score,INS symptoms; [9],3
same,Throat Clearing severity score,INS symptoms; [9],8
same,Bedwetting severity score,INS symptoms; [10],0
same,Runny Nose severity score,INS symptoms; [10],5
same,Global Improvement,"INS symptoms; Patient three, immunotherapy four months at 1/10th of maintenance dose, then omeprazole 40 mg two times daily added, one week",100%
same,Ear Pressure severity score,INS symptoms; [11],0
same,Excessive Ear Wax severity score,INS symptoms; [11],1
same,Pain in the teeth severity score,INS symptoms; [11],0
same,Repetitive Sneezing severity score,INS symptoms; [11],0
same,Epistaxis severity score,INS symptoms; [12],0
same,Frontal Headache severity score,INS symptoms; [12],0
same,Pollakiuria severity score,INS symptoms; [12],0
same,Hoarse Voice severity score,INS symptoms; [13],1
same,Itchy Eyes severity score,INS symptoms; [13],1
same,Sore Throat severity score,INS symptoms; [13],0
same,Watery Eyes severity score,INS symptoms; [13],0
same,Chest Tightness severity score,INS symptoms; [14],0
same,Cough severity score,INS symptoms; [14],0
same,Nasal Congestion severity score,INS symptoms; [14],0
same,Post Nasal Drip severity score,INS symptoms; [14],0
same,Runny Nose severity score,INS symptoms; [14],0
same,Sinus Pressure severity score,INS symptoms; [14],0
same,Throat Clearing severity score,INS symptoms; [14],0
same,Vertigo severity score,INS symptoms; [14],0
same,Mean GLI,[1]; IT not on maintenance dosing,60.00%
same,Mean GLI,[1]; IT on maintenance dosing,80.00%
same,Mean GLI,[1]; [15],56.67%
same,Mean GLI,[1]; No allergy,41.00%
"NCC(CC(=O)O)c1ccc(Cl)cc1 (stereo not shown) [Baclofen, baclofen]",Mean GLI,[1]; IT not on maintenance dosing,88.33%
same,Mean GLI,[1]; IT on maintenance dosing,70.00%
same,Mean GLI,[1]; [15],53.94%
same,Mean GLI,[1]; No allergy,65.00%
"NCC1(CC(=O)O)CCCCC1 [Gabapentin, gabapentin]","Global Improvement (global level of improvement, estimated by mother)",INS symptoms; [2],85%
same,"Global Improvement (global level of improvement, estimated by mother)","INS symptoms; Patient one, omeprazole 20 mg twice a day, one week, then gabapentin 900 mg twice daily, two weeks, listed as gabapentin",85%
same,Frontal Headache severity score,INS symptoms; [3],0
same,Vulvodynia severity score,INS symptoms; [4],0
same,Fatigue severity score,INS symptoms; [5],2
same,Malaise severity score,INS symptoms; [5],2
same,Nausea severity score,INS symptoms; [5],0
same,Shortness of breath severity score,INS symptoms; [6],5
same,Chest Tightness severity score,INS symptoms; [7],0
same,Watery Eyes severity score,INS symptoms; [7],0
same,Sore Throat severity score,INS symptoms; [8],0
same,Cough severity score,INS symptoms; [9],3
same,Pollakiuria severity score,INS symptoms; [9],2
same,Post Nasal Drip severity score,INS symptoms; [9],3
same,Throat Clearing severity score,INS symptoms; [9],5
same,Bedwetting severity score,INS symptoms; [10],0
same,Runny Nose severity score,INS symptoms; [10],0
same,Global Improvement (global level of improvement),"INS symptoms; Patient two, gabapentin 900 mg, two weeks, immunotherapy",60%
same,Global Improvement (global level of improvement),"INS symptoms; Patient two, gabapentin 900 mg, two weeks, immunotherapy, listed as gabapentin",60%
same,Hoarse Voice severity score,"INS symptoms; Patient two, score 1-10, 0 = not present, initial visit 2, gabapentin 900 mg, two weeks, immunotherapy, three months",1
same,Pain in the teeth severity score,"INS symptoms; Patient two, score 1-10, 0 = not present, initial visit 3, gabapentin 900 mg, two weeks, immunotherapy, three months",1
same,Ear Pressure severity score,INS symptoms; [16],2
same,Malaise severity score,INS symptoms; [16],1
same,Watery Eyes severity score,INS symptoms; [16],2
same,Fatigue severity score,INS symptoms; [17],3
same,Shortness of breath severity score,INS symptoms; [17],4
same,Chest Tightness severity score,INS symptoms; [18],2
same,Glossodynia severity score,INS symptoms; [18],3
same,Runny Nose severity score,INS symptoms; [18],1
same,Sore Throat severity score,INS symptoms; [18],1
same,Throat Clearing severity score,INS symptoms; [18],1
same,Vertigo severity score,INS symptoms; [18],1
same,Post Nasal Drip severity score,INS symptoms; [19],1
same,Puffy Eyelids severity score,INS symptoms; [19],3
same,Cough severity score,"INS symptoms; Patient two, score 1-10, 0 = not present, initial visit 9, gabapentin 900 mg, two weeks, immunotherapy, three months",2
same,Frontal Headache severity score,INS symptoms; [20],1
same,Itchy Eyes severity score,INS symptoms; [20],1
same,Itchy Pharynx severity score,INS symptoms; [20],3
same,Itchy Skin severity score,INS symptoms; [20],4
same,Repetitive Sneezing severity score,INS symptoms; [20],2
same,Sinus Pressure severity score,INS symptoms; [20],3
same,Mean GLI,[1]; IT not on maintenance dosing,69.09%
same,Mean GLI,[1]; IT on maintenance dosing,70.29%
same,Mean GLI,[1]; [15],65.58%
same,Mean GLI,[1]; No allergy,55.19%
